# According to patent US9334263B2, “Compositions useful for treating disorders related to kit” (BLUEPRINT MEDICINES CORPORATION, priority 2013, dated 2016):
# pIC50: −log10 of the molar value.
# Tests used:
# D816V Kit = biological target: T1, D816V Kit (Homo sapiens, UniProt P10721, D816V); experiment: Kit D816V assay at Km (Caliper electrophoretic mobility shift); assay type: biochemical; settings: 15 uM ATP, 25 C, 90 minutes
# T1 construct: purchased Carna Bioscience 08-156
# Method in brief: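 Read-out is the ratio of phosphorylated to unphosphorylated fluorescent peptide, resolved by mobility shift on a Caliper EZ Reader 2.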
# PDGFRA D842V = biological target: T2, PDGFRA D842V (Homo sapiens, UniProt P16234, D842V); experiment: PDGFRA D842V assay at Km (Caliper electrophoretic mobility shift); assay type: biochemical; settings: 15 uM ATP, 25 C, 90 minutes; read-out: PDFGRA D842V
# T2 construct: purchased ProQinase 0761-0000-1
# Experimental: (§1) In order to assess the activity of chemical compounds against the relevant kinase of interest, the Caliper LifeSciences electrophoretic mobility shift technology platform is used. Fluorescently labeled substrate peptide is incubated in the presence of kinase and ATP so that a […] proportion of the peptide is phosphorylated. At the end of the reaction, the mix of phosphorylated (product) and non-phosphorylated (substrate) peptides are passed through the microfluidic system of the Caliper EZ Reader 2, under an applied potential difference. The presence of the phosphate group on the product peptide provides a difference in mass and charge between those of the substrate peptide, resulting in a separation of the substrate and product pools in the sample. As the pools pass a LEDS within the instrument, these pools are detected and resolved as separate peaks. The ratio between these peaks therefore reflects the activity of the chemical matter at that concentration in that well, under those conditions.
# (§2) The reaction was stopped by the addition of 70 ul of Stop buffer (100 mM HEPES pH 7.5, 0.015% Brij 35, 35 mM EDTA and 0.2% of Coating Reagent 3 (Caliper Lifesciences)). The plate was then read on a Caliper EZReader 2 (protocol settings: −1.9 psi, upstream voltage −500, downstream voltage −3000, post sample sip 38 s).
# [1] = biological target: T3, Kit D816V (HMC1.2 cells, Kit V560G and D816V) (Homo sapiens, UniProt P10721, D816V/V560G); experiment: HMC1.2 autophosphorylation assay (AlphaLISA, phospho-Y719 c-Kit); assay type: cell-based; settings: Kit autophosphorylation at tyrosine 719, 90 minutes, read-out: Cellular Activity
# T3 construct: endogenous in cells; host or cells: HMC1.2 cells
# Method in brief: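 AlphaScreen signal comes from lysed HMC1.2 cells incubated with phospho-Y719 and total c-Kit antibodies (15 nM final), acceptor beads and then streptavidin donor beads, 2 h each at room temperature. Beforehand, cells deprived of serum overnight received compound for 90 min as a 10-point series, 25 uM–95.4 pM, 0.25% DMSO.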
# wild type Kit = biological target: T4, wild type Kit (Homo sapiens, UniProt P10721); experiment: Kit wild type assay at Km (Caliper electrophoretic mobility shift); assay type: biochemical; settings: 400 uM ATP, 25 C, 90 minutes; read-out: WT KIT
# T4 construct: purchased Carna Bioscience 08-156
# Experimental: as §1
# as §2, with “−700,” for “−500,”, “35” for “38”
# T3 sequence (P10721 26-976 V560G/D816V): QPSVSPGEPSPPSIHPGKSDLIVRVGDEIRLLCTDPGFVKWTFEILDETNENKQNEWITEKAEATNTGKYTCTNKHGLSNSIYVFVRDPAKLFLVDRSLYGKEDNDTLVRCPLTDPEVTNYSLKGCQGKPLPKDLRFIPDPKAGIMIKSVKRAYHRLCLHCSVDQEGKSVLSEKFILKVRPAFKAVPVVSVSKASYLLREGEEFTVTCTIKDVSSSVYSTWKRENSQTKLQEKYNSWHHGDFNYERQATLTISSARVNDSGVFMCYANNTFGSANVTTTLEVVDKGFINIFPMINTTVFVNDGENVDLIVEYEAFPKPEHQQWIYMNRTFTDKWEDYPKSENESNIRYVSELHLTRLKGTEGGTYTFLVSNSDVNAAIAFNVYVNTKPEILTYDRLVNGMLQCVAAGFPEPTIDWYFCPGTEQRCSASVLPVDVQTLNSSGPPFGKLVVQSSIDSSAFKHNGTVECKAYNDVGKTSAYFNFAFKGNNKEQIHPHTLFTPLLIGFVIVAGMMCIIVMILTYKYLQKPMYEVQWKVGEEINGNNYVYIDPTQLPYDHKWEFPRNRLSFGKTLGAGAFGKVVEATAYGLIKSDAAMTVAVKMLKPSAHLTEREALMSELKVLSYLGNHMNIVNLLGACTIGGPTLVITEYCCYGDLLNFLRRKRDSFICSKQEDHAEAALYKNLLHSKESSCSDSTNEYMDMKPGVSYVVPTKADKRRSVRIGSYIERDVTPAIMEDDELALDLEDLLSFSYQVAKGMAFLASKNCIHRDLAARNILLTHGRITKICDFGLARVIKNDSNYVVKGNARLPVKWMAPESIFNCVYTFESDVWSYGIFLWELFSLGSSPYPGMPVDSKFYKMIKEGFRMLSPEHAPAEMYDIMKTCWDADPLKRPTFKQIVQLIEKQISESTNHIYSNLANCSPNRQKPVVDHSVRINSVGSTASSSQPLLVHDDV
# T2 sequence (P16234 24-1089 D842V): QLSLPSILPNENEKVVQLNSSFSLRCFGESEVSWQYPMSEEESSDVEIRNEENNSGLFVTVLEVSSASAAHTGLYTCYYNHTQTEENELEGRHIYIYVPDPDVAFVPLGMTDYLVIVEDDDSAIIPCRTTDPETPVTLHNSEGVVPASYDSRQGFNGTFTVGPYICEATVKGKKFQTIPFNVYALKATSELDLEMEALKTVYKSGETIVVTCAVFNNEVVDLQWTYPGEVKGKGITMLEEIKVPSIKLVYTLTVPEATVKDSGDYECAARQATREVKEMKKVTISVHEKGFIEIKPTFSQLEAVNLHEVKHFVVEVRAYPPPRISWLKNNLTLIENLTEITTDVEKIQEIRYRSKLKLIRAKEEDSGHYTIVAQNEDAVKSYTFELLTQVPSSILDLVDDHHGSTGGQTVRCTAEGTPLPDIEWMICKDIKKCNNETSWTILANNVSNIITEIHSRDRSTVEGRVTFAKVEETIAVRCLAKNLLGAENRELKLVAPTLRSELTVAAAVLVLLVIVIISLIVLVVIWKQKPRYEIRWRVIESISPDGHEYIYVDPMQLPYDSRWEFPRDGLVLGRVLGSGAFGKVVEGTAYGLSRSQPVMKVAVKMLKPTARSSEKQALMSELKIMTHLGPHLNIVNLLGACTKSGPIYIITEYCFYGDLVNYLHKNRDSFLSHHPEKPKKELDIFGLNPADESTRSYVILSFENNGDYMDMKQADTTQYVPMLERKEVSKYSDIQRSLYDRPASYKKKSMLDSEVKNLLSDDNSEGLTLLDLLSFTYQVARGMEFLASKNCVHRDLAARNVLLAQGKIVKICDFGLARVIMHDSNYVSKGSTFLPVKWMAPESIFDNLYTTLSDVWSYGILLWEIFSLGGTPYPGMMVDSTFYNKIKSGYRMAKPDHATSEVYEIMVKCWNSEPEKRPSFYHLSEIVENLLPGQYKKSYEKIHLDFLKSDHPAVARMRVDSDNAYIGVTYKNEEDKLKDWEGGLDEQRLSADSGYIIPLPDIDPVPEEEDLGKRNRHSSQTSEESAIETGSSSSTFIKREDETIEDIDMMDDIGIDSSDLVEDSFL
# T4 sequence (P10721 26-976): as the sequence (P10721 26-976 V560G/D816V) above, with G535V, V791D counted along it
# T1 sequence (P10721 26-976 D816V): as the sequence (P10721 26-976 V560G/D816V) above, with G535V counted along it
structure (smiles),measurement,setting,value
"OC[C@@H](O)c1ccc(Nc2ncnc(N3CCN(c4ncc(Cc5ccccc5)cn4)CC3)n2)cc1 (single isomer, unassigned) [Compound 56]",pIC50,D816V Kit,> 9.00
same,pIC50,PDGFRA D842V,> 9.00
same,pIC50,[1],7.00 to 8.00
"OC[C@H](O)c1ccc(Nc2ncnc(N3CCN(c4ncc(Cc5ccccc5)cn4)CC3)n2)cc1 (single isomer, unassigned) [Compound 57]",pIC50,D816V Kit,> 9.00
same,pIC50,PDGFRA D842V,8.00 to 9.00
same,pIC50,[1],7.00 to 8.00
NS(=O)(=O)c1cccc(Nc2ncnc(N3CCN(c4ncc(Cc5ccccc5)cn4)CC3)n2)c1 [Compound 95],pIC50,D816V Kit,> 9.00
same,pIC50,wild type Kit,7.00 to 7.96
same,pIC50,[1],5.00 to 6.00
NS(=O)(=O)c1ccc(Nc2ncnc(N3CCN(c4ncc(Cc5ccccc5)cn4)CC3)n2)cc1 [Compound 96],pIC50,D816V Kit,> 9.00
same,pIC50,wild type Kit,7.00 to 7.96
same,pIC50,[1],6.00 to 7.00
c1ccc(Cc2cnc(N3CCN(c4ncnc(Nc5ccc(N6CCOCC6)cc5)n4)CC3)nc2)cc1 [Compound 103],pIC50,D816V Kit,8.00 to 9.00
same,pIC50,wild type Kit,7.00 to 7.96
same,pIC50,[1],6.00 to 7.00
c1ccc(Cc2cnc(N3CCN(c4ncnc(Nc5cccc(N6CCOCC6)c5)n4)CC3)nc2)cc1 [Compound 104],pIC50,D816V Kit,8.00 to 9.00
same,pIC50,wild type Kit,7.00 to 7.96
same,pIC50,[1],6.00 to 7.00
c1ccc(Cc2cnc(N3CCN(c4ncnc(Nc5cccc(O[C@@H]6CCNC6)c5)n4)CC3)nc2)cc1 [Compound 105],pIC50,D816V Kit,> 9.00
same,pIC50,wild type Kit,7.00 to 7.96
same,pIC50,[1],6.00 to 7.00
c1ccc(Cc2cnc(N3CCN(c4ncnc(Nc5cccc(O[C@@H]6CCNC6)c5)n4)CC3)nc2)cc1 [Compound 106],pIC50,PDGFRA D842V,8.00 to 9.00
c1ccc(Nc2cnc(N3CCN(c4ncnc(Nc5ccc(N6CCOCC6)cc5)n4)CC3)nc2)cc1 [Compound 114],pIC50,D816V Kit,8.00 to 9.00
same,pIC50,wild type Kit,6.00 to 7.00
same,pIC50,[1],6.00 to 7.00
Oc1ccccc1Cc1cnc(N2CCN(c3ncnc(Nc4ccc5c(c4)CNCC5)n3)CC2)nc1 [Compound 115],pIC50,D816V Kit,> 9.00
same,pIC50,wild type Kit,> 8.00
same,pIC50,[1],7.00 to 8.00
c1ccc(Cc2cnc(N3CCN(c4ncnc(Nc5cnn(CC6CCOCC6)c5)n4)CC3)nc2)cc1 [Compound 118],pIC50,D816V Kit,> 9.00
same,pIC50,wild type Kit,> 8.00
same,pIC50,[1],7.00 to 8.00
Fc1ccccc1Cc1cnc(N2CCN(c3ncnc(Nc4ccc5c(c4)CNCC5)n3)CC2)nc1 [Compound 127],pIC50,D816V Kit,> 9.00
same,pIC50,wild type Kit,> 8.00
same,pIC50,[1],7.00 to 8.00
C[C@@H]1CN(c2ncnc(Nc3ccc(P(C)(C)=O)cc3)n2)CCN1c1ncc(Cc2ccccc2)cn1 [Compound 128],pIC50,D816V Kit,8.00 to 9.00
same,pIC50,wild type Kit,7.00 to 7.96
same,pIC50,[1],6.00 to 7.00
CS(=O)(=O)c1ccc(Nc2ncnc(N3CCN(c4ncc(Cc5ccccc5)c(O)n4)CC3)n2)cc1 [Compound 143],pIC50,D816V Kit,8.00 to 9.00
same,pIC50,wild type Kit,7.00 to 7.96
same,pIC50,[1],6.00 to 7.00
CP(C)(=O)c1ccc(Nc2ncnc(N3CCN(c4ncc(Nc5ccc(F)cc5)cn4)CC3)n2)cc1 [Compound 144],pIC50,D816V Kit,8.00 to 9.00
same,pIC50,wild type Kit,7.00 to 7.96
same,pIC50,[1],6.00 to 7.00
CN1CCN(c2ccc(Nc3ncnc(N4CCN(c5ncc(Cc6ccccc6)cn5)CC4)n3)cc2)CC1 [Compound 156],pIC50,D816V Kit,> 9.00
same,pIC50,wild type Kit,> 8.00
same,pIC50,[1],7.00 to 8.00
Cc1cc(N2CCNCC2)ccc1Nc1ncnc(N2CCN(c3ncc(Cc4ccccc4)cn3)CC2)n1 [Compound 158],pIC50,D816V Kit,8.00 to 9.00
same,pIC50,wild type Kit,7.00 to 7.96
same,pIC50,[1],6.00 to 7.00
C[C@@H]1CN(c2ncnc(Nc3ccc(N4CCOCC4)cc3)n2)CCN1c1ncc(Cc2ccccc2)cn1 [Compound 159],pIC50,D816V Kit,8.00 to 9.00
same,pIC50,wild type Kit,7.00 to 7.96
same,pIC50,[1],6.00 to 7.00
c1ccc(Cc2cnc(N3CCN(c4ncnc(Nc5cccc(CN6CCOCC6)c5)n4)CC3)nc2)cc1 [Compound 160],pIC50,D816V Kit,8.00 to 9.00
same,pIC50,wild type Kit,7.00 to 7.96
same,pIC50,[1],6.00 to 7.00
c1ccc(Cc2cnc(N3CCN(c4ncnc(Nc5ccc(O[C@H]6CCCNC6)cc5)n4)CC3)nc2)cc1 [Compound 162],pIC50,D816V Kit,> 9.00
same,pIC50,wild type Kit,> 8.00
same,pIC50,[1],> 8.00
OCCN1CCc2ccc(Nc3ncnc(N4CCN(c5ncc(Cc6ccccc6)cn5)CC4)n3)cc2C1 [Compound 163],pIC50,D816V Kit,> 9.00
same,pIC50,wild type Kit,> 8.00
same,pIC50,[1],7.00 to 8.00
OCCC1CN(c2ncnc(Nc3ccc4c(c3)CNCC4)n2)CCN1c1ncc(Cc2ccccc2)cn1 (stereo not shown) [Compound 164],pIC50,D816V Kit,> 9.00
same,pIC50,wild type Kit,> 8.00
same,pIC50,[1],> 8.00
OC[C@H]1CCCN1c1ccc(Nc2ncnc(N3CCN(c4ncc(Cc5ccccc5)cn4)CC3)n2)cc1 [Compound 167],pIC50,D816V Kit,8.00 to 9.00
same,pIC50,wild type Kit,6.00 to 7.00
same,pIC50,[1],7.00 to 8.00
OC[C@@H]1CCCN1c1ccc(Nc2ncnc(N3CCN(c4ncc(Cc5ccccc5)cn4)CC3)n2)cc1 [Compound 168],pIC50,D816V Kit,8.00 to 9.00
same,pIC50,wild type Kit,7.00 to 7.96
same,pIC50,[1],7.00 to 8.00
c1ccc(Cc2cnc(N3CCN(c4ncnc(Nc5ccc(OC[C@H]6CCCN6)cc5)n4)CC3)nc2)cc1 [Compound 169],pIC50,D816V Kit,> 9.00
same,pIC50,wild type Kit,7.00 to 7.96
same,pIC50,[1],7.00 to 8.00
c1ccc(Cc2cnc(N3CCN(c4ncnc(Nc5ccc(OC[C@@H]6CCCN6)cc5)n4)CC3)nc2)cc1 [Compound 170],pIC50,D816V Kit,> 9.00
same,pIC50,wild type Kit,7.00 to 7.96
same,pIC50,[1],7.00 to 8.00
CN1CCO[C@@H](Cn2cc(Nc3ncnc(N4CCN(c5ncc(Cc6ccccc6)cn5)CC4)n3)cn2)C1 [Compound 180],pIC50,D816V Kit,> 9.00
same,pIC50,wild type Kit,7.00 to 7.96
same,pIC50,[1],7.00 to 8.00
CN1CCO[C@H](Cn2cc(Nc3ncnc(N4CCN(c5ncc(Cc6ccccc6)cn5)CC4)n3)cn2)C1 [Compound 181],pIC50,D816V Kit,> 9.00
same,pIC50,wild type Kit,> 8.00
same,pIC50,[1],7.00 to 8.00
OC1(Cn2cc(Nc3ncnc(N4CCN(c5ncc(Cc6ccccc6)cn5)CC4)n3)cn2)CCNCC1 [Compound 182],pIC50,D816V Kit,> 9.00
same,pIC50,wild type Kit,7.00 to 7.96
same,pIC50,[1],7.00 to 8.00
FC1(F)CN(Cc2cccc(Nc3ncnc(N4CCN(c5ncc(Cc6ccccc6)cn5)CC4)n3)c2)C1 [Compound 188],pIC50,D816V Kit,8.00 to 9.00
same,pIC50,wild type Kit,7.00 to 7.96
same,pIC50,[1],7.00 to 8.00
FC1(Cn2cc(Nc3ncnc(N4CCN(c5ncc(Cc6ccccc6)cn5)CC4)n3)cn2)CCNCC1 [Compound 191],pIC50,D816V Kit,> 9.00
same,pIC50,wild type Kit,> 8.00
same,pIC50,[1],> 8.00
Cc1cc(N2CCN(C)CC2)ccc1Nc1ncnc(N2CCN(c3ncc(Cc4ccccc4)cn3)CC2)n1 [Compound 212],pIC50,D816V Kit,8.00 to 9.00
same,pIC50,wild type Kit,7.00 to 7.96
same,pIC50,[1],6.00 to 7.00
COCCN1CCc2ccc(Nc3ncnc(N4CCN(c5ncc(Cc6ccccc6)cn5)CC4)n3)cc2C1 [Compound 215],pIC50,D816V Kit,> 9.00
same,pIC50,wild type Kit,> 8.00
same,pIC50,[1],7.00 to 8.00
CN1CCC[C@@H](Oc2ccc(Nc3ncnc(N4CCN(c5ncc(Cc6ccccc6)cn5)CC4)n3)cc2)C1 [Compound 216],pIC50,D816V Kit,> 9.00
same,pIC50,wild type Kit,> 8.00
same,pIC50,[1],> 8.00
CN1CCC[C@H](Oc2ccc(Nc3ncnc(N4CCN(c5ncc(Cc6ccccc6)cn5)CC4)n3)cc2)C1 [Compound 217],pIC50,D816V Kit,> 9.00
same,pIC50,wild type Kit,> 8.00
same,pIC50,[1],> 8.00
CN1CCC[C@@H]1COc1ccc(Nc2ncnc(N3CCN(c4ncc(Cc5ccccc5)cn4)CC3)n2)cc1 [Compound 218],pIC50,D816V Kit,> 9.00
same,pIC50,wild type Kit,> 8.00
same,pIC50,[1],7.00 to 8.00
CN1CCC[C@H]1COc1ccc(Nc2ncnc(N3CCN(c4ncc(Cc5ccccc5)cn4)CC3)n2)cc1 [Compound 219],pIC50,D816V Kit,> 9.00
same,pIC50,wild type Kit,> 8.00
same,pIC50,[1],7.00 to 8.00
CN1CCN(c2ccc(Nc3ncnc(N4CCN(c5ncc(Cc6ccccc6)cn5)CC4)n3)cc2F)CC1 [Compound 237],pIC50,D816V Kit,> 9.00
same,pIC50,wild type Kit,7.00 to 7.96
same,pIC50,[1],7.00 to 8.00
CN(C)[C@H]1CCN(Cc2cccc(Nc3ncnc(N4CCN(c5ncc(Cc6ccccc6)cn5)CC4)n3)c2)C1 [Compound 260],pIC50,D816V Kit,> 9.00
same,pIC50,wild type Kit,> 8.00
same,pIC50,[1],7.00 to 8.00
CN1CCC[C@@H]1COc1ccc(Nc2ncnc(N3CCN(c4ncc(Cc5ccccc5)c(N)n4)CC3)n2)cc1 [Compound 265],pIC50,D816V Kit,> 9.00
same,pIC50,wild type Kit,> 8.00
same,pIC50,[1],> 8.00
CN1CCC[C@H]1COc1ccc(Nc2ncnc(N3CCN(c4ncc(Cc5ccccc5)c(N)n4)CC3)n2)cc1 [Compound 266],pIC50,D816V Kit,> 9.00
same,pIC50,wild type Kit,> 8.00
same,pIC50,[1],> 8.00
FC(F)(F)CN1CCc2ccc(Nc3ncnc(N4CCN(c5ncc(Cc6ccccc6)cn5)CC4)n3)cc2C1 [Compound 268],pIC50,D816V Kit,8.00 to 9.00
same,pIC50,wild type Kit,6.00 to 7.00
same,pIC50,[1],6.00 to 7.00
